Broadly, the thermodynamic solubility is solubility found after equilibrating the solid with the medium.

The results in this text go back to PMC10041525, “New Dual Inhibitors of Bacterial Topoisomerases with Broad-Spectrum Antibacterial Activity and In Vivo Efficacy against Vancomycin-Intermediate Staphylococcus aureus” (Journal of Medicinal Chemistry, 2023).

The nature of the data set: physchem. Type of data set: physicochemical. To be noted: for solubility thermodynamic at 24 h / solubility thermodynamic at 48 h: phosphate-buffered saline (PBS). As for the experimental part: For the PBS, 2.38 g of disodium hydrogen phosphate dodecahydrate, 0.19 g of potassium dihydrogen phosphate, and 8.0 g of sodium chloride were added to distilled water (900 mL), and the solution was mixed overnight. […] Samples were prepared by weighing the exact mass of solid compounds (about 1 mg), and then, the appropriate volume of PBS was added to reach the final concentration of ∼1 mg/mL. […] The supernatant was diluted 3× with a 1:1 mixture of 0.1% TFA in water and acetonitrile and analyzed by HPLC. For the 7-point calibration curves, concentrated stock solutions of the compounds were prepared at concentrations of 10 and 0.5 mM in DMSO, which were diluted with a 1:1 mixture of 0.1% TFA in water and acetonitrile to the desired final concentrations and analyzed by HPLC. Results are given in μM as an average value of two independent experiments. For details on calibration curves, concentrations, analytical method, and HPLC method, see the Supporting Information.
Thermodynamic solubility assay
To determine thermodynamic solubility of compounds in PBS, calibration curves for the assayed compounds were prepared using seven concentrations. First, DMSO stock solutions of compounds at 10 mM and 0.5 mM concentration were prepared and then diluted (0.1% TFA in […]
Quality control (QC) samples were diluted from stock solutions with a 1:1 mixture of 0.1% TFA in water and acetonitrile to final concentrations of 60 µM, 20 µM, and 2 µM (6 µM, 2 µM, and 0.2 µM for 7f or 0.6 µM, 0.2 µM, and 0.02 µM for 7g).
Analytical reversed-phase UHPLC analyses were performed on Thermo Scientific Dionex UltiMate 3000 modular system (Thermo Fisher Scientific Inc., MA, USA). Waters Acquity UPLC® HSS C18 SB column (2.1 × 50 mm, 1.8 μm; Waters, Milford, MA, USA) was used at T […]
Mobile phase consisted of 0.1% trifluoroacetic acid in ultrapure water (solvent A) and acetonitrile […]
The obtained data was processed in Chromeleon CDS software (Thermo Fisher Scientific Inc., […]
Analytical method was tested for accuracy, precision and linear rang. Accuracy was […]
(or 2 or 0.2) µM and 60 (or 6 or 0.6) µM) to their true values and expressed in (%). Values were […]
Method repeatability was determined by calculating the RSD from the separately prepared and analysed quality control samples (n = 3). […] Linearity of the […]
method (1 (or 0.1 or 0.01) µM to 100 (or 10 or 1) µM) was evaluated from the 7-point calibration […]
Solubility was determined in two independent experiments and results were calculated in […]

Where [1] appears, read: pH 7.4, PBS pH 7.4, read-out: thermodynamic solubility, Experiment 1.
Setting [2] is: pH 7.4, thermodynamic solubility (pH = 7.4), PBS, 37 °C, 24 h, mean of two.
Where [3] appears, read: pH 7.4, PBS pH 7.4, read-out: thermodynamic solubility, Experiment 2.

In brackets after ≈: the same amount, converted by molar mass. Several values for one entry are separate records, joined by “and”; a condition that tells them apart may be missing. Identical values can stand only once. Like-named read-outs stand apart in the source and are kept apart here.

With `Cc1[nH]c(C(=O)Nc2nc3c(N4CCOC(C(F)(F)F)C4)cc(C(=O)O)cc3s2)c(Cl)c1Cl` (centres unmarked) [7i, 2-(3,4-Dichloro-5-methyl-1H-pyrrole-2-carboxamido)-4-(2-(trifluoromethyl)morpholino)benzo[d]thiazole-6-carboxylic Acid], under setting [1], the thermodynamic solubility at 24 h was 10.7 µM (≈ 5.57 µg/mL). Under setting [2], the thermodynamic solubility at 24 h came out at 10.7 µM (≈ 5.6 µg/mL) and the thermodynamic solubility at 48 h is 11 µM (≈ 5.76 µg/mL).
On to `Cc1[nH]c(C(=O)Nc2nc3c(N4CCC(O)CC4)cc(C(=O)O)cc3s2)c(Cl)c1Cl` [7p, 2-(3,4-Dichloro-5-methyl-1H-pyrrole-2-carboxamido)-4-(4-hydroxypiperidin-1-yl)benzo[d]thiazole-6-carboxylic Acid], for which the “thermodynamic solubility (pH = 7.4)” value (PBS, 37 °C, 24 h, mean of two) is 183.7 µM and 183.67 µM. The solubility (thermodynamic) at 24 h was determined as 279 µM (≈ 131 µg/mL) under setting [1], 88.3 µM (≈ 41.4 µg/mL) under setting [3] and 184 µM (≈ 86.4 µg/mL) under setting [2].
In the case of `Cc1[nH]c(C(=O)Nc2nc3c(N4CCOCC4C)cc(C(=O)O)cc3s2)c(Cl)c1Cl` (centres unmarked) [7b, 2-(3,4-Dichloro-5-methyl-1H-pyrrole-2-carboxamido)-4-(3-methylmorpholino)benzo[d]thiazole-6-carboxylic Acid], the thermodynamic solubility at 24 h under setting [1] was 59.6 µM (≈ 28 µg/mL), the thermodynamic solubility at 24 h under setting [3] is 76.6 µM (≈ 36 µg/mL) and the solubility (thermodynamic) at 24 h under setting [2] is 68.1 µM (≈ 32 µg/mL). The compound also came in with a solubility (thermodynamic) at 48 h under setting [2] of 68 µM (≈ 31.9 µg/mL).
For `Cc1[nH]c(C(=O)Nc2nc3c(N4CCOC(C)C4)cc(C(=O)O)cc3s2)c(Cl)c1Cl` (centres unmarked) [7e, 2-(3,4-Dichloro-5-methyl-1H-pyrrole-2-carboxamido)-4-(2-methylmorpholino)benzo[d]thiazole-6-carboxylic Acid], the “thermodynamic solubility (pH = 7.4)” value (PBS, 37 °C, 24 h, mean of two) is 80.35 µM. Moreover, the solubility (thermodynamic) at 24 h by setting is: under setting [1], 71.9 µM (≈ 33.7 µg/mL); under setting [3], 88.8 µM (≈ 41.7 µg/mL); under setting [2], 80.4 µM (≈ 37.7 µg/mL). Under setting [2], this compound returned a thermodynamic solubility at 48 h of 80 µM (≈ 37.5 µg/mL).
As to `COCC1CCCN1c1cc(C(=O)O)cc2sc(NC(=O)c3[nH]c(C)c(Cl)c3Cl)nc12` (centres unmarked) [7n, 2-(3,4-Dichloro-5-methyl-1H-pyrrole-2-carboxamido)-4-(2-(methoxymethyl)pyrrolidin-1-yl)benzo[d]thiazole-6-carboxylic Acid], the “thermodynamic solubility (pH = 7.4)” value (PBS, 37 °C, 24 h, mean of two) stood at 11.18 µM. Besides, the thermodynamic solubility at 24 h reads like this: under setting [1], 11 µM (≈ 5.31 µg/mL); under setting [3], 11.4 µM (≈ 5.49 µg/mL); under setting [2], 11.2 µM (≈ 5.41 µg/mL).
In the case of `Cc1[nH]c(C(=O)Nc2nc3c(N4CCOCC4)cc(C(=O)O)cc3s2)cc1Cl` [16a, 2-(4-Chloro-5-methyl-1H-pyrrole-2-carboxamido)-4-morpholinobenzo[d]thiazole-6-carboxylic Acid], the “thermodynamic solubility (pH = 7.4)” value (PBS, 37 °C, 24 h, mean of two) is reported as 137.58 µM. For the same compound, the solubility (thermodynamic) at 24 h reads like this: under setting [1], 134 µM (≈ 56.3 µg/mL); under setting [3], 141 µM (≈ 59.6 µg/mL); under setting [2], 138 µM (≈ 57.9 µg/mL). Further, the thermodynamic solubility at 48 h under setting [2] was 137 µM (≈ 57.7 µg/mL).
On to `Cc1[nH]c(C(=O)Nc2nc3c(N4CCOCC4)cc(C(=O)O)cc3s2)cc1F` [16b, 2-(4-Fluoro-5-methyl-1H-pyrrole-2-carboxamido)-4-morpholinobenzo[d]thiazole-6-carboxylic Acid], for which, where the note is “PBS, 37 °C, 24 h, mean of two”, the “thermodynamic solubility (pH = 7.4)” value is 131.4 µM and 131.42 µM. The thermodynamic solubility at 24 h came out at 140 µM (≈ 56.7 µg/mL) under setting [1], 123 µM (≈ 49.6 µg/mL) under setting [3] and 131 µM (≈ 53 µg/mL) under setting [2].
For the compound `Cc1[nH]c(C(=O)Nc2nc3c(N4CC(C)OC(C)C4)cc(C(=O)O)cc3s2)c(Cl)c1Cl` (centres unmarked) [7f, 2-(3,4-Dichloro-5-methyl-1H-pyrrole-2-carboxamido)-4-(2,6-dimethylmorpholino)benzo[d]thiazole-6-carboxylic Acid], the thermodynamic solubility at 24 h stood at 0.95 µM (≈ 0.459 µg/mL) under setting [1], 0.89 µM (≈ 0.43 µg/mL) under setting [3] and 0.92 µM (≈ 0.445 µg/mL) under setting [2].
For `Cc1[nH]c(C(=O)Nc2nc3c(N4CCOC[C@H]4C)cc(C(=O)O)cc3s2)c(Cl)c1Cl` [7c, (R)-2-(3,4-Dichloro-5-methyl-1H-pyrrole-2-carboxamido)-4-(3-methylmorpholino)benzo[d]thiazole-6-carboxylic Acid], the “thermodynamic solubility (pH = 7.4)” value (PBS, 37 °C, 24 h, mean of two) was determined as 10.14 µM. Further, the thermodynamic solubility at 24 h reads like this: under setting [1], 8.67 µM (≈ 4.07 µg/mL); under setting [3], 11.6 µM (≈ 5.44 µg/mL); under setting [2], 10.1 µM (≈ 4.74 µg/mL).
Take `Cc1[nH]c(C(=O)Nc2nc3c(N4C[C@H]5CC[C@@H](C4)O5)cc(C(=O)O)cc3s2)c(Cl)c1Cl` [7g, 4-((1R,5S)-8-Oxa-3-azabicyclo[3.2.1]octan-3-yl)-2-(3,4-dichloro-5-methyl-1H-pyrrole-2-carboxamido)benzo[d]thiazole-6-carboxylic Acid]: the thermodynamic solubility at 24 h is, setting by setting: under setting [1], 0.33 µM (≈ 0.159 µg/mL); under setting [3], 0.19 µM (≈ 0.0915 µg/mL). For the same compound, the solubility (thermodynamic) at 48 h under setting [2] was found to be 0.26 µM (≈ 0.125 µg/mL).
Take `Cc1[nH]c(C(=O)Nc2nc3c(N4CCOC[C@@H]4C)cc(C(=O)O)cc3s2)c(Cl)c1Cl` [7d, (S)-2-(3,4-Dichloro-5-methyl-1H-pyrrole-2-carboxamido)-4-(3-methylmorpholino)benzo[d]thiazole-6-carboxylic Acid]: under “PBS, 37 °C, 24 h, mean of two”, the “thermodynamic solubility (pH = 7.4)” value is on record as 5.84 µM. Besides, the thermodynamic solubility at 24 h by setting is: under setting [1], 5.6 µM (≈ 2.63 µg/mL); under setting [3], 6.07 µM (≈ 2.85 µg/mL); under setting [2], 5.8 µM (≈ 2.72 µg/mL).
In the same order, the values of `COC[C@@H]1CCCN1c1cc(C(=O)O)cc2sc(NC(=O)c3[nH]c(C)c(Cl)c3Cl)nc12` [7o, (S)-2-(3,4-Dichloro-5-methyl-1H-pyrrole-2-carboxamido)-4-(2-(methoxymethyl)pyrrolidin-1-yl)benzo[d]thiazole-6-carboxylic Acid] are 10.98 µM, 10.6 µM (≈ 5.12 µg/mL), 11.4 µM (≈ 5.5 µg/mL) and 11 µM (≈ 5.32 µg/mL).
